# Article PMC6946680, “Modulation of brain cation-Cl^− cotransport via the SPAK kinase inhibitor ZT-1a” (Nature Communications, 2020)
# Tests used:
# Assay in all cases: Kinase profiling panel
# Format in all cases: biochemical
# [1] = tested on: Lck
# Method: (§1) Supplementary Table 2. ZT-1a kinase profiling data6.
# (§2) ZT-1a was tested at 10 and 1 µM against a panel of 140 recombinant kinases in an enzymatic
# (§3) activity-based assay performed by the International Centre for Kinase Profiling in the MRC
# (§4) Protein Phosphorylation and Ubiquitylation Unit. Values represent % residual kinase activity
# [2] = tested on: BRSK2
# Method: as §1, §2, §3, §4
# [3] = tested on: EPH-B2
# Method: as §1, §2, §3, §4
# [4] = tested on: PKCa
# Method: as §1, §2, §3, §4
# [5] = tested on: TESK1
# Method: as §1, §2, §3, §4
# [6] = tested on: SIK3
# Method: as §1, §2, §3, §4
# [7] = tested on: JNK3
# Method: as §1, §2, §3, §4
# [8] = tested on: EPH-B4
# Method: as §1, §2, §3, §4
# [9] = tested on: CDK2-Cyclin A
# Method: as §1, §2, §3, §4
# [10] = tested on: ERK8
# Method: as §1, §2, §3, §4
# [11] = tested on: NEK6
# Method: as §1, §2, §3, §4
# [12] = tested on: PAK2
# Method: as §1, §2, §3, §4
# [13] = tested on: PDGFRA
# Method: as §1, §2, §3, §4
# [14] = tested on: NUAK1
# Method: as §1, §2, §3, §4
# [15] = tested on: GSK3b
# Method: as §1, §2, §3, §4
# [16] = tested on: PLK1
# Method: as §1, §2, §3, §4
# [17] = tested on: PIM3
# Method: as §1, §2, §3, §4
# [18] = tested on: CK1δ
# Method: as §1, §2, §3, §4
# [19] = tested on: JNK2
# Method: as §1, §2, §3, §4
# [20] = tested on: HIPK2
# Method: as §1, §2, §3, §4
# [21] = tested on: EF2K
# Method: as §1, §2, §3, §4
# [22] = tested on: STK33
# Method: as §1, §2, §3, §4
# [23] = tested on: DYRK1A
# Method: as §1, §2, §3, §4
# [24] = tested on: ABL
# Method: as §1, §2, §3, §4
# [25] = tested on: ERK1
# Method: as §1, §2, §3, §4
# [26] = tested on: OSR1
# Method: as §1, §2, §3, §4
# [27] = tested on: TIE2
# Method: as §1, §2, §3, §4
# [28] = tested on: IKKe
# Method: as §1, §2, §3, §4
# [29] = tested on: MNK2
# Method: as §1, §2, §3, §4
# [30] = tested on: MKK6
# Method: as §1, §2, §3, §4
# [31] = tested on: FGF-R1
# Method: as §1, §2, §3, §4
# [32] = tested on: S6K1
# Method: as §1, §2, §3, §4
# [33] = tested on: BRK
# Method: as §1, §2, §3, §4
# [34] = tested on: CK2
# Method: as §1, §2, §3, §4
# [35] = tested on: DAPK1
# Method: as §1, §2, §3, §4
# [36] = tested on: IRAK1
# Method: as §1, §2, §3, §4
# [37] = tested on: EIF2AK3
# Method: as §1, §2, §3, §4
# [38] = tested on: PRAK
# Method: as §1, §2, §3, §4
# [39] = tested on: Aurora B
# Method: as §1, §2, §3, §4
# [40] = tested on: SmMLCK
# Method: as §1, §2, §3, §4
# [41] = tested on: ZAP70
# Method: as §1, §2, §3, §4
# [42] = tested on: CDK9-Cyclin T1
# Method: as §1, §2, §3, §4
# [43] = tested on: MST2
# Method: as §1, §2, §3, §4
# [44] = tested on: TrkA
# Method: as §1, §2, §3, §4
smiles,measurement,setting,value
"Cc1cc(C(C#N)c2ccc(Cl)cc2)c(Cl)cc1NC(=O)c1cc(Cl)ccc1O (stereo not shown) [ZT-1a, 5-chloro-N-(5-chloro-4-((4-chlorophenyl)(cyano)methyl)-2-methylphenyl)-2-hydroxybenzamide]",% residual kinase activity,[1]; 1 µM,112±13%
same,% residual kinase activity,[1]; 10 µM,127±14%
same,% residual kinase activity,[2]; 1 µM,115±14%
same,% residual kinase activity,[2]; 10 µM,104±0%
same,% residual kinase activity,[3]; 1 µM,77±2%
same,% residual kinase activity,[3]; 10 µM,81±8%
same,% residual kinase activity,[4]; 1 µM,97±4%
same,% residual kinase activity,[4]; 10 µM,83±2%
same,% residual kinase activity,[5]; 1 µM,109±3%
same,% residual kinase activity,[5]; 10 µM,77±10%
same,% residual kinase activity,[6]; 1 µM,104±9%
same,% residual kinase activity,[6]; 10 µM,88±0%
same,% residual kinase activity,[7]; 1 µM,63±15%
same,% residual kinase activity,[7]; 10 µM,60±10%
same,% residual kinase activity,[8]; 1 µM,100±8%
same,% residual kinase activity,[8]; 10 µM,151±33%
same,% residual kinase activity,[9]; 1 µM,128±12%
same,% residual kinase activity,[9]; 10 µM,125±6%
same,% residual kinase activity,[10]; 1 µM,104±11%
same,% residual kinase activity,[10]; 10 µM,63±3%
same,% residual kinase activity,[11]; 1 µM,107±6%
same,% residual kinase activity,[11]; 10 µM,108±1%
same,% residual kinase activity,[12]; 1 µM,110±4%
same,% residual kinase activity,[12]; 10 µM,93±8%
same,% residual kinase activity,[13]; 1 µM,84±11%
same,% residual kinase activity,[13]; 10 µM,80±7%
same,% residual kinase activity,[14]; 1 µM,52±7%
same,% residual kinase activity,[14]; 10 µM,61±16%
same,% residual kinase activity,[15]; 1 µM,39±4%
same,% residual kinase activity,[15]; 10 µM,38±12%
same,% residual kinase activity,[16]; 1 µM,72±1%
same,% residual kinase activity,[16]; 10 µM,93±21%
same,% residual kinase activity,[17]; 1 µM,115±12%
same,% residual kinase activity,[17]; 10 µM,99±2%
same,% residual kinase activity,[18]; 1 µM,116±5%
same,% residual kinase activity,[18]; 10 µM,114±9%
same,% residual kinase activity,[19]; 1 µM,102±2%
same,% residual kinase activity,[19]; 10 µM,147±51%
same,% residual kinase activity,[20]; 1 µM,90±14%
same,% residual kinase activity,[20]; 10 µM,91±4%
same,% residual kinase activity,[21]; 1 µM,104±13%
same,% residual kinase activity,[21]; 10 µM,56±2%
same,% residual kinase activity,[22]; 1 µM,114±7%
same,% residual kinase activity,[22]; 10 µM,100±5%
same,% residual kinase activity,[23]; 1 µM,119±7%
same,% residual kinase activity,[23]; 10 µM,103±1%
same,% residual kinase activity,[24]; 1 µM,85±4%
same,% residual kinase activity,[24]; 10 µM,68±16%
same,% residual kinase activity,[25]; 1 µM,107±16%
same,% residual kinase activity,[25]; 10 µM,109±18%
same,% residual kinase activity,[26]; 1 µM,106±9%
same,% residual kinase activity,[26]; 10 µM,98±3%
same,% residual kinase activity,[27]; 1 µM,139±74%
same,% residual kinase activity,[27]; 10 µM,73±11%
same,% residual kinase activity,[28]; 1 µM,87±13%
same,% residual kinase activity,[28]; 10 µM,59±5%
same,% residual kinase activity,[29]; 1 µM,100±7%
same,% residual kinase activity,[29]; 10 µM,105±3%
same,% residual kinase activity,[30]; 1 µM,102±12%
same,% residual kinase activity,[30]; 10 µM,82±16%
same,% residual kinase activity,[31]; 1 µM,93±6%
same,% residual kinase activity,[31]; 10 µM,101±15%
same,% residual kinase activity,[32]; 1 µM,119±10%
same,% residual kinase activity,[32]; 10 µM,81±2%
same,% residual kinase activity,[33]; 1 µM,116±12%
same,% residual kinase activity,[33]; 10 µM,103±2%
same,% residual kinase activity,[34]; 1 µM,72±15%
same,% residual kinase activity,[34]; 10 µM,59±16%
same,% residual kinase activity,[35]; 1 µM,131±8%
same,% residual kinase activity,[35]; 10 µM,159±11%
same,% residual kinase activity,[36]; 1 µM,128±2%
same,% residual kinase activity,[36]; 10 µM,95±7%
same,% residual kinase activity,[37]; 1 µM,114±2%
same,% residual kinase activity,[37]; 10 µM,100±3%
same,% residual kinase activity,[38]; 1 µM,78±13%
same,% residual kinase activity,[38]; 10 µM,41±7%
same,% residual kinase activity,[39]; 1 µM,119±6%
same,% residual kinase activity,[39]; 10 µM,92±15%
same,% residual kinase activity,[40]; 1 µM,99±3%
same,% residual kinase activity,[40]; 10 µM,98±9%
same,% residual kinase activity,[41]; 1 µM,120±1%
same,% residual kinase activity,[41]; 10 µM,97±9%
same,% residual kinase activity,[42]; 1 µM,104±0%
same,% residual kinase activity,[42]; 10 µM,108±1%
same,% residual kinase activity,[43]; 1 µM,115±4%
same,% residual kinase activity,[43]; 10 µM,113±2%
same,% residual kinase activity,[44]; 1 µM,108±9%
same,% residual kinase activity,[44]; 10 µM,91±7%
